Experimental data reported in US11446287B2, “Compounds and methods for EP300 or CBP modulation and indications therefor” (Opna Immuno-Oncology SA, priority 2019, dated 2022).

What follows are compounds tested against T1, Recombinant human CBP containing the bromodomain (CBP-BD (1043-1159)) (Homo sapiens, UniProt Q92793) (assay: CBP Alphascreen binding assay). Conditions: read-out: CREBBP (CBP) IC50.
T1 construct: Recombinant human CBP bromodomain (CBP-BD (1043-1159)); made in house; host or cells: E. coli BL21-CodonPlus (DE3), modified pET vector
T1 sequence (Q92793 1081-1197): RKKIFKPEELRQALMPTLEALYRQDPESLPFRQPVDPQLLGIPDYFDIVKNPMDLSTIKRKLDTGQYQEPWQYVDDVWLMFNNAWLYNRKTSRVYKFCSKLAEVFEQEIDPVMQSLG
In short: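 Buffer: 50 mM HEPES pH 7.5, 50 mM NaCl, 0.01% BSA, 0.01% Triton X-100, 2 mM DTT. The signal was normalised to plate controls and fitted with a four-parameter curve to give IC50.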
With `CCc1noc(C)c1-c1cnc2c(c1)c(-c1ccc(C(=O)O)cc1OC(F)(F)F)cn2C1CCOCC1` [P-0400, 4-(5-(3-ethyl-5-methylisoxazol-4-yl)-1-(tetrahydro-2H-pyran-4-yl)-1H-pyrrolo[2,3-b]pyridin-3-yl)-3-(trifluoromethoxy)benzoic acid] the IC50 was 0.1 to 1000 nM. In the case of `CCOc1nc(C(=O)O)c(Cl)cc1-c1cn([C@H]2CCOC2)c2ncc(-c3c(C)noc3C)cc12` [P-0406, (S)-3-chloro-5-(5-(3,5-dimethylisoxazol-4-yl)-1-(tetrahydrofuran-3-yl)-1H-pyrrolo[2,3-b]pyridin-3-yl)-6-ethoxypicolinic acid], the IC50 is reported as 0.1 to 1000 nM. With `COC(=O)c1cc(-c2cn(C(c3ccccn3)C3CCCC3)c3ncc(-c4c(C)noc4C)cc23)ccn1` (centres unmarked) [P-0040, methyl 4-(1-(cyclopentyl(pyridin-2-yl)methyl)-5-(3,5-dimethylisoxazol-4-yl)-1H-pyrrolo[2,3-b]pyridin-3-yl)picolinate] the IC50 was 0.1 to 1000 nM. `CCOc1cc(C(=O)O)nc(OCC)c1-c1cn(-c2cn(CC)nc2C)c2ncc(-c3c(C)noc3C)cc12` [P-0430, 5-(5-(3,5-dimethylisoxazol-4-yl)-1-(1-ethyl-3-methyl-1H-pyrazol-4-yl)-1H-pyrrolo[2,3-b]pyridin-3-yl)-4,6-diethoxypicolinic acid] showed an IC50 of 0.1 to 1000 nM. Compound `CCOc1cc(C(=O)O)c(F)cc1-c1cn(C2CCN(C(=O)C(C)(C)C)CC2)c2ncc(-c3c(C)noc3C)cc12` [P-0445, 4-(5-(3,5-dimethylisoxazol-4-yl)-1-(1-pivaloylpiperidin-4-yl)-1H-pyrrolo[2,3-b]pyridin-3-yl)-5-ethoxy-2-fluorobenzoic acid] has an IC50 of 0.1 to 1000 nM. Compound `Cc1noc(C)c1-c1cnc2c(c1)c(-c1ccc(CC(=O)O)cc1F)cn2-c1ccc(F)cc1F` [P-0437] has an IC50 of 0.1 to 1000 nM. `Cc1noc(C)c1-c1cnc2c(c1)c(-c1c(Cl)cc(C(=O)O)cc1OC(C)C)cn2-c1cnc(C2CC2)nc1` [P-0393, 3-chloro-4-(1-(2-cyclopropylpyrimidin-5-yl)-5-(3,5-dimethylisoxazol-4-yl)-1H-pyrrolo[2,3-b]pyridin-3-yl)-5-isopropoxybenzoic acid] was tested, and the IC50 was 0.1 to 1000 nM. Compound `CCOc1cc(C(=O)O)nc(OCC)c1-c1cn(-c2ncccc2C(N)=O)c2ncc(-c3c(C)noc3C)cc12` [P-0422, 5-(1-(3-carbamoylpyridin-2-yl)-5-(3,5-dimethylisoxazol-4-yl)-1H-pyrrolo[2,3-b]pyridin-3-yl)-4,6-diethoxypicolinic acid] has an IC50 of 0.1 to 1000 nM. With `CCOc1cc(C(=O)O)ncc1-c1cn(C(C2CC2)C2CC2)c2ncc(-c3c(C)noc3C)cc12` [P-0427, 5-(1-(dicyclopropylmethyl)-5-(3,5-dimethylisoxazol-4-yl)-1H-pyrrolo[2,3-b]pyridin-3-yl)-4-ethoxypicolinic acid] the IC50 was 0.1 to 1000 nM. `CCOc1nc(C(=O)O)c(Cl)cc1-c1cn(C2CCOCC2)c2ncc(-c3c(C)noc3C)cc12` [P-0398, 3-chloro-5-(5-(3,5-dimethylisoxazol-4-yl)-1-(tetrahydro-2H-pyran-4-yl)-1H-pyrrolo[2,3-b]pyridin-3-yl)-6-ethoxypicolinic acid] was tested, and the IC50 was 0.1 to 1000 nM. `Cc1noc(C)c1-c1cnc2c(c1)c(-c1ccnc(C(=O)O)c1C)cn2C(C1CC1)C1CC1` [P-0418, 4-(1-(dicyclopropylmethyl)-5-(3,5-dimethylisoxazol-4-yl)-1H-pyrrolo[2,3-b]pyridin-3-yl)-3-methylpicolinic acid] gave an IC50 of 0.1 to 1000 nM. Compound `CCOc1cc(C(=O)O)nc(OCC)c1-c1cn(-c2cccnc2)c2ncc(-c3c(C)noc3C)cc12` [P-0436, 5-(5-(3,5-dimethylisoxazol-4-yl)-1-(pyridin-3-yl)-1H-pyrrolo[2,3-b]pyridin-3-yl)-4,6-diethoxypicolinic acid] has an IC50 of 0.1 to 1000 nM. Work on `CCOc1nc(C(=O)O)ccc1-c1cn(C2(C)CCOCC2)c2ncc(-c3c(C)noc3C)cc12` [P-0405, 5-(5-(3,5-dimethylisoxazol-4-yl)-1-(4-methyltetrahydro-2H-pyran-4-yl)-1H-pyrrolo[2,3-b]pyridin-3-yl)-6-ethoxypicolinic acid] yielded an IC50 of 0.1 to 1000 nM. Work on `Cc1nnn(C)c1-c1cnc2c(c1)c(-c1cccc(C(=O)O)c1)cn2[C@@H](C)c1ccccn1` [P-0449, (S)-3-(5-(1,4-dimethyl-1H-1,2,3-triazol-5-yl)-1-(1-(pyridin-2-yl)ethyl)-1H-pyrrolo[2,3-b]pyridin-3-yl)benzoic acid] yielded an IC50 of 0.1 to 1000 nM. `CCOc1cc(C(=O)O)nc(OCC)c1-c1cn(-c2ccc(C#N)cc2F)c2ncc(-c3c(C)noc3C)cc12` [P-0423, 5-(1-(4-cyano-2-fluorophenyl)-5-(3,5-dimethylisoxazol-4-yl)-1H-pyrrolo[2,3-b]pyridin-3-yl)-4,6-diethoxypicolinic acid] was tested, and the IC50 was 0.1 to 1000 nM. `CCOc1cc(C(=O)OC)nc(OCC)c1-c1cn(-c2ccc(F)cc2F)c2ncc(-c3c(C)noc3C)cc12` [P-0432, methyl 5-(1-(2,4-difluorophenyl)-5-(3,5-dimethylisoxazol-4-yl)-1H-pyrrolo[2,3-b]pyridin-3-yl)-4,6-diethoxypicolinate] gave an IC50 of 0.1 to 1000 nM. With `CCOc1cc(C(=O)O)nc(OCC)c1-c1cn(C2CCC(F)(F)CC2)c2ncc(-c3c(C)noc3C)cc12` [P-0425, 5-(1-(4,4-difluorocyclohexyl)-5-(3,5-dimethylisoxazol-4-yl)-1H-pyrrolo[2,3-b]pyridin-3-yl)-4,6-diethoxypicolinic acid] the IC50 was 0.1 to 1000 nM. `CCOc1cc(C(=O)O)nc(OCC)c1-c1cn([C@@H](C)c2ccccn2)c2ncc(-c3c(C)noc3C)cc12` [P-0415, (S)-5-(5-(3,5-dimethylisoxazol-4-yl)-1-(1-(pyridin-2-yl)ethyl)-1H-pyrrolo[2,3-b]pyridin-3-yl)-4,6-diethoxypicolinic acid] gave an IC50 of 0.1 to 1000 nM. `CCOc1cc(C(=O)O)nc(OCC)c1-c1cn(-c2cnc(C3CC3)nc2)c2ncc(-c3c(C)noc3C)cc12` [P-0424, 5-(1-(2-cyclopropylpyrimidin-5-yl)-5-(3,5-dimethylisoxazol-4-yl)-1H-pyrrolo[2,3-b]pyridin-3-yl)-4,6-diethoxypicolinic acid] was tested, and the IC50 was 0.1 to 1000 nM. Work on `COc1cc(C(=O)O)ccc1-c1cn([C@@H](C)c2ccccn2)c2ncc(-c3c(C)noc3C)cc12` [P-0047, (S)-4-(5-(3,5-dimethylisoxazol-4-yl)-1-(1-(pyridin-2-yl)ethyl)-1H-pyrrolo[2,3-b]pyridin-3-yl)-3-methoxybenzoic acid] yielded an IC50 of 0.1 to 1000 nM. For `CCOc1cc(C(=O)O)ncc1-c1cn(C2CCOCC2)c2ncc(-c3c(C)noc3C)cc12` [P-0428, 5-(5-(3,5-dimethylisoxazol-4-yl)-1-(tetrahydro-2H-pyran-4-yl)-1H-pyrrolo[2,3-b]pyridin-3-yl)-4-ethoxypicolinic acid], the IC50 was 0.1 to 1000 nM. For `CCOc1cc(C(=O)O)nc(OCC)c1-c1cn(C2CCN(C(=O)OC(C)(C)C)CC2)c2ncc(-c3c(C)noc3C)cc12` [P-0433, 5-(1-(1-(tert-butoxycarbonyl)piperidin-4-yl)-5-(3,5-dimethylisoxazol-4-yl)-1H-pyrrolo[2,3-b]pyridin-3-yl)-4,6-diethoxypicolinic acid], the IC50 was 0.1 to 1000 nM. For `CCc1onc(C)c1-c1cnc2c(c1)c(-c1c(Cl)cc(C(=O)O)cc1OC(F)(F)F)cn2-c1ccc(C2CC2)nc1` [P-0448, 3-chloro-4-(1-(6-cyclopropylpyridin-3-yl)-5-(5-ethyl-3-methylisoxazol-4-yl)-1H-pyrrolo[2,3-b]pyridin-3-yl)-5-(trifluoromethoxy)benzoic acid], the IC50 was 0.1 to 1000 nM.
